We go through 2 compounds from patent publication US5925369A, “Bis alkanoyl esters of carnitine having bactericidal, fungicidal and antiprotozoal activity” (priority 1996, dated 1999).

Like-named read-outs stand apart in the source and are kept apart here.

Test [1] concerns anaerobic bacteria. Briefly: MIC on anaerobic bacteria (all strains). The following applies: for MIC: 3 strains. In kind it is cell-based. On the procedure: Bacteria from cultures in […].) medium on Petri dishes, grown overnight at 35° C. in an anaerobic jar, were resuspended in Brucella broth. The suspensions were adjusted to 1.0×10^8 cells/ml and distributed (0.2 ml/well) in microtiter plates (96-well U-bottomed plate). At the same time, 0.3 log dilutions of the substances are mixed with W. C. agar medium in four-sectioned Petri dishes, which are then seeded with the bacterial suspension by means of a multipoint inoculator (1.0×10^5 cells/spot). The plates are then incubated at 35° C. for 48 hours in an anaerobic jar) (See J. E. ROSENBLATT, Antimicrobial susceptibility testing of anaerobes, in Antibiotics in laboratory medicine. V. LORIAN Ed., II edition, 6, 159-180, Williams & Wilkins, Baltimora, Md 21202 U.S.A.).

The test system of test [2] is Staph. epider. Briefly: MIC on Gram positive bacteria. In kind it is cell-based. As to conditions: Staph. epider. IDI 3482, clinical isolate (suppurative wound); read-out: Minimal Inhibitory Concentration. How it is done: (§1) Bacterial suspensions are prepared from an overnight culture in Mueller-Hinton broth and are adjusted, in the same medium, to a final concentration of 5.0×10^4 cells/ml in each well of a 96-well microtiter plate. Substance dilutions (0.3 log) in Mueller-Hinton broth are added to the suspensions in order to have a range of final concentrations from 0.19 to 100 mcg/ml.
(§2) Microtiters are then incubated at 37° C. for 18 hours. (See L. D. THRUPP, Susceptibility testing of antibiotics in liquid media, in: Antibiotics in laboratory medicine. V. LORIAN Ed., II edition, 4, 93-150, Williams & Wilkins, Baltimora, Md. 21202 U.S.A.).

In test [3] the test system is Strept. sp. Briefly: MIC on Gram positive bacteria. The test is classed as cell-based. As to conditions: Strept. sp. SG 7 II, clinical isolate; read-out: Minimal Inhibitory Concentration. How it is done: as §1, §2
Test [4] concerns Staph. capitis. Briefly: MIC on Gram positive bacteria. The following applies: Staphylococcus capitis; Staph. capitis IDI 3502, clinical isolate (pustule, scalp); read-out: Minimal Inhibitory Concentration. In kind it is cell-based. How it is done:
as §1, §2

The subject of test [5] is B. pumilus. Briefly: MIC on Gram positive bacteria. The following applies: Bacillus pumilus; B. pumilus CN 607, lab collection; read-out: Minimal Inhibitory Concentration. In kind it is cell-based. On the procedure: as §1, §2
In test [6] the test system is S. faecalis (Strept. faecalis). Briefly: MIC on Gram positive bacteria. In kind it is cell-based. The following applies: Enterococcus faecalis, read-out: Minimal Inhibitory Concentration. On the procedure: as §1, §2
Test [7] relates to Staph. sp. Briefly: MIC on Gram positive bacteria. In kind it is cell-based. As to conditions: Staph. sp. SG1 II, clinical isolate; read-out: Minimal Inhibitory Concentration. How it is done:
as §1, §2

Test [8] relates to Micrococcus sp. Briefly: MIC on Gram positive bacteria. In kind it is cell-based. The following applies: Micrococcus sp. IDI 3502, clinical isolate (pustule, scalp); read-out: Minimal Inhibitory Concentration. On the procedure: as §1, §2
The test system of test [9] is S. aureus (Staph. aureus). Briefly: MIC on Gram positive bacteria. In kind it is cell-based. The following applies: Staphylococcus aureus, read-out: Minimal Inhibitory Concentration. On the procedure:
as §1, §2

Test [10] has as its system Staph. warneri. Briefly: MIC on Gram positive bacteria. In kind it is cell-based. As to conditions: Staphylococcus warneri; Staph. warneri IDI 3482, clinical isolate (suppurative wound); read-out: Minimal Inhibitory Concentration. How it is done: as §1, §2
Test [11] relates to Tricophyton quinckeanum NCPF 309. Briefly: In vivo antiinfective effect on topical mixed infection in mice. The following applies: for T. quinckeanum: Cured animals: 5 animals/group. Further details: species or system BALB/c mice; key to T. quinckeanum: Not cured animals (fungal growth): +++: confluent fungal growth (from a 1ml skin homogenate); ++: semiconfluent fungal growth (from a 1ml skin homogenate); +: moderate fungal growth (from a 1ml skin homogenate). On the procedure: (§3) Male inbred BALB/c mice (C. RIVER), aged 6 weeks were used (5 animals per group).
(§4) The animals were topically infected with pathogenic strains of Tricophyton (Tricophyton quinckeanum NCPF 309) and Staphylococcus (Staphylococcus aureus LC1).
(§5) Suspensions of fungal microaleuriospores and bacteria were adjusted to a final concentration of 5.0×10^7 and 1.0×10^7 cells/ml, respectively. Volumes of 0.2 ml of each suspension were applied onto the upper posterior zone of the animals, which had previously been shaved and gently abraded with a scalpel blade until "glistening". Treatment started 30 hours after the inocula by administering 50 mg of each substance in a gel form (1% test article) on the infected skin once a day for 5 consecutive days. Two days following the last treatment, animals were sacrificed and infected tissue samples were collected. Following homogenization and appropriate dilution in medium, tissue samples were plated (in Mycobiotic agar and Mannitol Salt agar for fungi and bacteria, respectively) to selectively assess the growth of the pathogens. Fungal growth is evaluated by means of an arbitrary scale, while bacterial growth is evaluated by determining the CFUs (Colony Forming Units).

Test [12] has as its system Staphylococcus aureus LC1. The test is described as above. Further details: species or system BALB/c mice. The following applies: for S. aureus: Not cured animals (mean CFU/mouse) / S. aureus: Cured animals: 50 mg/day of 1% gel, topical, 5 days; for S. aureus: Cured animals: 5 animals/group; for activity on S. aureus, ST 1226 and ST 1103 compared: mixed topical infection. On the procedure: as §3, §4, §5

Test [13] deals with yeast-like strains. Briefly: MIC on yeast-like strains (all lab collection strains). The following applies: 5 strains. The test is classed as cell-based. On the procedure: Overnight yeast cultures in Sabouraud broth are appropriately washed and diluted in Yeast Nitrogen Base supplemented with asparagine and glucose (Y.N.B.s.) to yield approximately 5.0×10^4 CFU/ml in microtiter wells. Substance dilutions (0.3 log) in Y.N.B.s. are added to these suspensions to a final concentration range from 0.19 to 100 mcg/ml. Microtiter plates are then incubated at 35° C. for 24-48 hours (See PFALLER M., RINALDI M. G., […] J. M., BARTLETT M. S., BODY B. A., ESPINEL-INGROFF A., FROMTLING R. A., HALL G. S., HUGHES G. E., ODDS F. C., SUGAR A. M., Collaborative investigator of variables in susceptibility testing of yeasts, Ant. Agent and Chemoth., 34, 9:1648-1656, 1990. COOK R., McINTYRE K. A., […] J. M., Effects of incubation temperature, inoculum size, and medium on agreement of macro and microdilution broth susceptibility test, results for yeasts, Ant. Agent and Chemoth., 34, 8:1542-1545, 1990. […] E., PAETZNICK V., BODEY G. P., Fluconazole susceptibility testing of "Candida albicans" microtiter method that is indipendent of inoculum size, temperature, and time of reaching, Ant. Agent and Chemoth., 35, 8:1641-1646, 1991).

The test system of test [14] is E. aerogenes. Briefly: MIC on Gram negative bacteria. The test is classed as cell-based. The following applies: Klebsiella aerogenes; E. aerogenes UM, lab collection; read-out: Minimal Inhibitory Concentration. On the procedure:
as §1, §2

Setting [15] is: S. faecalis 501, lab collection.
Where [16] appears, read: S. faecalis 509, lab collection.
Where [17] appears, read: Strept. faecalis IDI 3580, clinical isolate (ulcer).
The mark [18] stands for this setting: S. aureus 306 MR, lab collection.
Setting [19] is: Staph. aureus IDI 3530, clinical isolate (ulcer).
[20] abbreviates: Staph. aureus IDI 3593, clinical isolate (ulcer).
Setting [21] is: Staph. aureus SG II, clinical isolate.
[22] abbreviates: 50 mg/day of 1% gel, topical, 5 days.

Regarding `CCCCCCCCCCCOC(=O)C[C@H](C[N+](C)(C)C)OC(=O)CC(C)C` [ST 1103, isovaleryl L-carnitine undecyl ester methanesulfonate, reference compound], the MIC in test [1] was determined as 11.4 µg/mL; in test [2], 1.56 µg/mL; in [3], 3.12 µg/mL; in test [4], 3.12 µg/mL; in test [5], 3.12 µg/mL; in [6] (setting [15]) it was 3.12 µg/mL. Besides, the MIC in test [6] (setting [16]) turned out to be 1.56 µg/mL; in test [6] (setting [17]), 6.25 µg/mL; in test [7] it was 6.25 µg/mL; in test [8] it was 3.12 µg/mL; in test [9] (S. aureus 303, lab collection) it was 6.25 µg/mL; in test [9] (setting [18]), 6.25 µg/mL. The MIC in test [9] (setting [19]) was 3.12 µg/mL; in test [9] (setting [20]), 3.12 µg/mL; in test [9] (setting [21]) it was 3.12 µg/mL; in test [10] it was 6.25 µg/mL; in test [13], 2.8 µg/mL; in test [14], 25 µg/mL. Besides, the “T. quinckeanum: Not cured animals (fungal growth)” value in test [11] (setting [22]) is on record as “+”. Besides, in test [11] (setting [22]), the “T. quinckeanum: Cured animals” value is given as 80%. In addition, the “S. aureus: Not cured animals (mean CFU/mouse)” value in test [12] is listed as 40 CFU/mouse. The “S. aureus: Cured animals” value in test [12] was 80%. In addition, the “activity on S. aureus, ST 1226 and ST 1103 compared” value in test [12] is recorded as “identical activity on S. aureus”.
Regarding `CCCCCCCCCCC(=O)O[C@H](CC(=O)OCc1ccc(COC(=O)C[C@H](C[N+](C)(C)C)OC(=O)CCCCCCCCCC)cc1)C[N+](C)(C)C` [ST 1226, bis(undecanoyl L-carnitine chloride)p-xylilene diester], the “mean MIC value compared with ST 1103” value in test [1] was “smaller than ST 1103”. Moreover, the MIC in test [1] was determined as 8.33 µg/mL; in [2], 3.12 µg/mL; in test [3], 3.12 µg/mL; in test [4], 1.56 µg/mL; in [5] it was 1.56 µg/mL; in [6] (setting [15]), 3.12 µg/mL. The MIC in [6] (setting [16]) was determined as 1.56 µg/mL; in test [6] (setting [17]), 6.25 µg/mL; in [7] it was 3.12 µg/mL; in test [8] it was 1.56 µg/mL; in [9] (S. aureus 303, lab collection), 3.12 µg/mL; in test [9] (setting [18]) it was 3.12 µg/mL. Moreover, the MIC in test [9] (setting [19]) turned out to be 3.12 µg/mL; in test [9] (setting [20]), 3.12 µg/mL; in test [9] (setting [21]) it was 3.12 µg/mL; in test [10], 3.12 µg/mL; in [13] it was 2.49 µg/mL; in [14], 6.25 µg/mL. In [11] (setting [22]), the “T. quinckeanum: Cured animals” value amounted to 100%. For the same compound, the “antifungal activity compared with ST 1103” value in [11] (mixed topical infection) is reported as “greater antinfungal activity than ST 1103”. Moreover, in [12], the “S. aureus: Not cured animals (mean CFU/mouse)” value turned out to be 50 CFU/mouse. For the same compound, in test [12], the “S. aureus: Cured animals” value was 80%. The “activity on S. aureus, ST 1226 and ST 1103 compared” value in test [12] is given as “identical activity on S. aureus”.
